Data reported in PubChem BioAssay AID2060892 (Molecular Pharmacology Branch, DTP, NCI, 2025).

Test system: HOP-62 complex spheroids with HUVEC/MSC, viability
Experiment: Anticancer human tumor HOP-62 cell line growth inhibition [RAS];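 also: spheroids exposed to agents for seven days before readout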;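 as to viability, T/C: 100% = DMSO vehicle control viability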
Conditions: for IC50: curve of first compound; for viability, T/C: stronger effect = lower value
Outline: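 Tumour cells grown as complex spheroids with HUVEC endothelial cells and mesenchymal stem cells, treated with RAS pathway inhibitor combinations. Each agent spans half-log steps from near clinical Cmax, or 10 microM where Cmax is unknown.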

[1] = second compound 0.000949 µM, first compound 0.0316 µM
[2] = second compound 0.000949 µM, first compound 0.1 µM
[3] = second compound 0.000949 µM, first compound 0.316 µM
[4] = second compound 0.000949 µM, first compound 1 µM
[5] = second compound 0.003 µM, first compound 0.0316 µM
[6] = second compound 0.003 µM, first compound 0.1 µM
[7] = second compound 0.003 µM, first compound 0.316 µM
[8] = second compound 0.003 µM, first compound 1 µM
[9] = second compound 0.00949 µM, first compound 0.0316 µM
[10] = second compound 0.00949 µM, first compound 0.1 µM
[11] = second compound 0.00949 µM, first compound 0.316 µM
[12] = second compound 0.00949 µM, first compound 1 µM
[13] = second compound 0.03 µM, first compound 0.0316 µM
[14] = second compound 0.03 µM, first compound 0.1 µM
[15] = second compound 0.03 µM, first compound 0.316 µM
[16] = second compound 0.03 µM, first compound 1 µM
[17] = second compound 0.0949 µM, first compound 0.0316 µM
[18] = second compound 0.0949 µM, first compound 0.1 µM
[19] = second compound 0.0949 µM, first compound 0.316 µM
[20] = second compound 0.0949 µM, first compound 1 µM
[21] = second compound 0.3 µM, first compound 0.0316 µM
[22] = second compound 0.3 µM, first compound 0.1 µM
[23] = second compound 0.3 µM, first compound 0.316 µM
[24] = second compound 0.3 µM, first compound 1 µM
[25] = second compound 0.000949 µM, first compound 3.16 µM
[26] = second compound 0.000949 µM, first compound 10 µM
[27] = second compound 0.003 µM, first compound 3.16 µM
[28] = second compound 0.003 µM, first compound 10 µM
[29] = second compound 0.00949 µM, first compound 3.16 µM
[30] = second compound 0.00949 µM, first compound 10 µM
[31] = second compound 0.03 µM, first compound 3.16 µM
[32] = second compound 0.03 µM, first compound 10 µM
[33] = second compound 0.0949 µM, first compound 3.16 µM
[34] = second compound 0.0949 µM, first compound 10 µM
[35] = second compound 0.3 µM, first compound 3.16 µM
[36] = second compound 0.3 µM, first compound 10 µM

In the case of `CCN1CCN(Cc2ccc(Nc3ncc(F)c(-c4cc(F)c5nc(C)n(C(C)C)c5c4)n3)nc2)CC1` + CCn1c(-c2cccnc2C(C)OC)c2c3cc(ccc31)N1CCOC(CC(NC(=O)C(C(C)C)N(C)C(=O)C3(F)CCN(C(=O)C#CC(C)(C)N(C)C)CC3)C(=O)N3CCCC(N3)C(=O)OCC(C)(C)C2)C1, the IC50 (second compound 0.000949 µM) is reported as greater than 1 µM, the IC50 (second compound 0.003 µM) is reported as greater than 1 µM and the IC50 (second compound 0.00949 µM) is reported as greater than 1 µM. It also gave an IC50 (second compound 0.03 µM) greater than 1 µM, an IC50 (second compound 0.0949 µM) greater than 1 µM and an IC50 (second compound 0.3 µM) greater than 1 µM. The viability, T/C (second compound 0.000949 µM, first compound 0.00316 µM) was 106%, the viability, T/C (second compound 0.000949 µM, first compound 0.01 µM) was 116% and the viability, T/C [1] was 86.5%. The viability, T/C [2] was 108%, the viability, T/C [3] was 107% and the viability, T/C [4] was 92.3%. The viability, T/C (second compound 0.003 µM, first compound 0.00316 µM) was 102%, the viability, T/C (second compound 0.003 µM, first compound 0.01 µM) was 99.7% and the viability, T/C [5] was 68.9%. For the same molecule, the viability, T/C [6] was 97%, the viability, T/C [7] was 97.5% and the viability, T/C [8] was 76.8%. It also gave a viability, T/C (second compound 0.00949 µM, first compound 0.00316 µM) of 100%, a viability, T/C (second compound 0.00949 µM, first compound 0.01 µM) of 81.7% and a viability, T/C [9] of 84.2%. It also gave a viability, T/C [10] of 87.9%, a viability, T/C [11] of 88.6% and a viability, T/C [12] of 79.2%. The viability, T/C (second compound 0.03 µM, first compound 0.00316 µM) was 96.6%, the viability, T/C (second compound 0.03 µM, first compound 0.01 µM) was 86.7% and the viability, T/C [13] was 82.8%. For the same molecule, the viability, T/C [14] was 85.3%, the viability, T/C [15] was 78.6% and the viability, T/C [16] was 89.5%. The viability, T/C (second compound 0.0949 µM, first compound 0.00316 µM) was 87.8%, the viability, T/C (second compound 0.0949 µM, first compound 0.01 µM) was 97.7% and the viability, T/C [17] was 79.7%. The viability, T/C [18] was 74.4%, the viability, T/C [19] was 68.3% and the viability, T/C [20] was 97.4%. For the same molecule, the viability, T/C (second compound 0.3 µM, first compound 0.00316 µM) was 90.2%, the viability, T/C (second compound 0.3 µM, first compound 0.01 µM) was 78.9% and the viability, T/C [21] was 79.7%. It also gave a viability, T/C [22] of 70.2%, a viability, T/C [23] of 74.3% and a viability, T/C [24] of 91.4%.

For `Cc1nc(N2CCC3(CC2)COC(C)C3N)c(CO)nc1Sc1ccnc(N)c1Cl` (stereo unspecified) + CCn1c(-c2cccnc2C(C)OC)c2c3cc(ccc31)N1CCOC(CC(NC(=O)C(C(C)C)N(C)C(=O)C3(F)CCN(C(=O)C#CC(C)(C)N(C)C)CC3)C(=O)N3CCCC(N3)C(=O)OCC(C)(C)C2)C1, the IC50 (second compound 0.000949 µM) was 2.92 µM, the IC50 (second compound 0.003 µM) was 0.541 µM and the IC50 (second compound 0.00949 µM) was 0.738 µM. The IC50 (second compound 0.03 µM) was 0.465 µM, the IC50 (second compound 0.0949 µM) was 0.302 µM and the IC50 (second compound 0.3 µM) was 0.213 µM. It also gave a viability, T/C [1] of 120%, a viability, T/C [2] of 101% and a viability, T/C [3] of 60.3%. It also gave a viability, T/C [4] of 65.7%, a viability, T/C [25] of 63.3% and a viability, T/C [26] of 31.3%. The viability, T/C [5] was 107%, the viability, T/C [6] was 80.1% and the viability, T/C [7] was 42.9%. For the same molecule, the viability, T/C [8] was 55.6%, the viability, T/C [27] was 35.3% and the viability, T/C [28] was 18.3%. It also gave a viability, T/C [9] of 80.7%, a viability, T/C [10] of 59.4% and a viability, T/C [11] of 83.1%. The viability, T/C [12] was 41.3%, the viability, T/C [29] was 23.9% and the viability, T/C [30] was 22.4%. It also gave a viability, T/C [13] of 77.8%, a viability, T/C [14] of 70.5% and a viability, T/C [15] of 58.5%. It also gave a viability, T/C [16] of 34.9%, a viability, T/C [31] of 20.1% and a viability, T/C [32] of 20.9%. For the same molecule, the viability, T/C [17] was 81.4%, the viability, T/C [18] was 64.2% and the viability, T/C [19] was 51.5%. For the same molecule, the viability, T/C [20] was 35.5%, the viability, T/C [33] was 19.8% and the viability, T/C [34] was 23%. It also gave a viability, T/C [21] of 84.8%, a viability, T/C [22] of 66.1% and a viability, T/C [23] of 41.6%. It also gave a viability, T/C [24] of 26.5%, a viability, T/C [35] of 20.3% and a viability, T/C [36] of 19.4%.

With `NC1c2ccccc2OC12CCN(c1cnc3c(N4CCCc5ncccc54)n[nH]c3n1)CC2` (stereo unspecified) + CCn1c(-c2cccnc2C(C)OC)c2c3cc(ccc31)N1CCOC(CC(NC(=O)C(C(C)C)N(C)C(=O)C3(F)CCN(C(=O)C#CC(C)(C)N(C)C)CC3)C(=O)N3CCCC(N3)C(=O)OCC(C)(C)C2)C1 the IC50 (second compound 0.000949 µM) was 0.183 µM, the IC50 (second compound 0.003 µM) was 0.429 µM and the IC50 (second compound 0.00949 µM) was 0.0527 µM. For the same molecule, the IC50 (second compound 0.03 µM) was 0.0646 µM, the IC50 (second compound 0.0949 µM) was 0.0391 µM and the IC50 (second compound 0.3 µM) was less than 0.0316 µM. The viability, T/C [1] was 91.2%, the viability, T/C [2] was 70.6% and the viability, T/C [3] was 27.8%. The viability, T/C [4] was 44.5%, the viability, T/C [25] was 33.4% and the viability, T/C [26] was 19.4%. It also gave a viability, T/C [5] of 69.4%, a viability, T/C [6] of 48.5% and a viability, T/C [7] of 60.5%. It also gave a viability, T/C [8] of 23.9%, a viability, T/C [27] of 19.3% and a viability, T/C [28] of 9.81%. For the same molecule, the viability, T/C [9] was 60%, the viability, T/C [10] was 35.3% and the viability, T/C [11] was 29.6%. It also gave a viability, T/C [12] of 22.7%, a viability, T/C [29] of 14.8% and a viability, T/C [30] of 13.2%. It also gave a viability, T/C [13] of 64.1%, a viability, T/C [14] of 42.1% and a viability, T/C [15] of 24%. The viability, T/C [16] was 28.3%, the viability, T/C [31] was 12% and the viability, T/C [32] was 14.6%. For the same molecule, the viability, T/C [17] was 53.3%, the viability, T/C [18] was 35.5% and the viability, T/C [19] was 20.7%. It also gave a viability, T/C [20] of 16.8%, a viability, T/C [33] of 11.5% and a viability, T/C [34] of 14.7%. The viability, T/C [21] was 44.4%, the viability, T/C [22] was 28.6% and the viability, T/C [23] was 18.4%. The viability, T/C [24] was 15.6%, the viability, T/C [35] was 13.5% and the viability, T/C [36] was 15.2%.
